Laboratory results from patent US8314112B2 (Novartis AG, priority 2008, dated 2012).

T1: human ALK5 (kinase domain, ALK5 T204D) (Homo sapiens, UniProt P36897, T204D)
T1 construct: The kinase domain of human ALK5 (amino acids 200-503); made in house; host or cells: insect cells (baculovirus)
T1 sequence (P36897 200-503 T204D): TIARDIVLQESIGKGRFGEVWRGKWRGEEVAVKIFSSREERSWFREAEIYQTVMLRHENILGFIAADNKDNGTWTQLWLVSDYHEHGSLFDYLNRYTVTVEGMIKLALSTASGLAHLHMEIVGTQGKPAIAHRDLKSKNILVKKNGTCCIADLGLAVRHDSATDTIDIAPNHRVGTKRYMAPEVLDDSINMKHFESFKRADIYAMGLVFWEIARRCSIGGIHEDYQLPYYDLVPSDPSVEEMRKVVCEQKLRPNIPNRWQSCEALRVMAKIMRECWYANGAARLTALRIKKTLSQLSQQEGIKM

B1: follistatin: "follistatin, an antagonist of activin signalling" (protein, UniProt P19883 30-344, looked up)
Follistatin: GNCWLRQAKNGRCQVLYKTELSKEECCSTGRLSTSWTEEDVNDNTLFKWMIFNGGAPNCIPCKETCENVDCGPGKKCRMNKKNKPRCVCAPDCSNITWKGPVCGLDGKTYRNECALLKARCKEQPELEVQYQGRCKKTCRDVFCPGSSTCVVDQTNNAYCVTCNRICPEPASSEQYLCGNDGVTYSSACHLRKATCLLGRSIGLAYEGKCIKAKSCEDIQCTGGKKCLWDFKVGRGRCSLCDELCPDSKSDEPVCASDNATYASECAMKEAACSSGVLLEVKHSGSCNSISEDTEEEEEDEDQDYSFPISSILEW

Tested on: dimethylnitrosamine induced liver fibrosis
Assay: not given
Conditions: given therapeutically to rat, 3 weeks treatment; cited from earlier work

Row | Molecule | inhibition of extracellular matrix deposition [%] | prevention of death rate [%]
1 | c1ccc(-c2cc(-c3cn[nH]c3-c3ccccn3)ccn2)cc1 [GW6604] | 60 | 40

Same assay, conditions: rat, in vivo; cited from earlier work

Row | Molecule | side effects
2 | c1ccc(-c2cc(-c3cn[nH]c3-c3ccccn3)ccn2)cc1 [GW6604] | no obvious side effects

Tested on: bleomycin-induced pulmonary fibrosis
Assay: not given
Conditions: bleomycin-treated rats; cited from earlier work

Row | Molecule | lung fibrosis | number of macrophages and neutrophils in bronchoalveolar lavage
3 | B1 | attenuated lung fibrosis | significantly reduced

Molecular target: T1, human ALK5 (kinase domain, ALK5 T204D)
Assay: ALK5 kinase assay ([33P] phosphate incorporation into casein)
Format: biochemical
Conditions: casein substrate, 1 μM unlabelled ATP
Outline: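 His-tagged human ALK5 T204D kinase domain (aa 200-503, constitutively active, baculovirus/insect-cell expressed), 50 ng/well, preincubated 10 min with compound and dephosphorylated casein (200 μg/well) in Tris pH 7.4/MgCl2/MnCl2. Reaction started with 1 μM ATP plus [33P]ATP, 50 min at room temperature, EDTA-stopped; casein-bound 33P counted by scintillation after filter capture.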

Row | IC50 [nM] | Molecule
4 | 30 | Cc1cccc(-c2cc(-c3cncc(-c4cccc(CN(C)CC(=O)O)c4)c3)c3cc[nH]c3n2)n1 [Example 143, [Methyl-(3-{5-[6-(6-methyl-pyridin-2-yl)-1H-pyrrolo[2,3-b]pyridin-4-yl]-pyridin-3-yl}-benzyl)-amino]-acetic acid]
5 | 19 | Cc1cccc(-c2nc(-c3cncc(-c4cccc(CN(C)CCO)c4)c3)c3cc[nH]c3n2)n1 [Example 144, 2-[Methyl-(3-{5-[2-(6-methyl-pyridin-2-yl)-7H-pyrrolo[2,3-d]pyrimidin-4-yl]-pyridin-3-yl}-benzyl)-amino]-ethanol]
6 | 26 | Cc1cccc(-c2nc(-c3cncc(-c4cccc(CN(C)CC(=O)O)c4)c3)c3cc[nH]c3n2)n1 [Example 145]
7 | 27 | COC(=O)CNCc1cccc(-c2cncc(-c3nc(-c4cccc(C)n4)nc4[nH]ccc34)c2)c1 [Example 146, (3-{5-[2-(6-Methyl-pyridin-2-yl)-7H-pyrrolo[2,3-d]pyrimidin-4-yl]-pyridin-3-yl}-benzylamino)-acetic acid methyl ester]
8 | 10 | Cc1cccc(-c2nc(-c3cncc(-c4cccc(CNCCO)c4)c3)c3cc[nH]c3n2)n1 [Example 147, 2-(3-{5-[2-(6-Methyl-pyridin-2-yl)-7H-pyrrolo[2,3-d]pyrimidin-4-yl]-pyridin-3-yl}-benzylamino)-ethanol]
9 | 17 | Cc1cccc(-c2nc(-c3cncc(-c4cccc(CNCC(=O)O)c4)c3)c3cc[nH]c3n2)n1 [Example 148, (3-{5-[2-(6-Methyl-pyridin-2-yl)-7H-pyrrolo[2,3-d]pyrimidin-4-yl]-pyridin-3-yl}-benzylamino)-acetic acid]
10 | 8 | COC(=O)CNCc1ccc(-c2cncc(-c3nc(-c4cccc(C)n4)nc4[nH]ccc34)c2)cc1 [Example 149, (4-{5-[2-(6-Methyl-pyridin-2-yl)-7H-pyrrolo[2,3-d]pyrimidin-4-yl]-pyridin-3-yl}-benzylamino)-acetic acid methyl ester]
11 | 17 | Cc1cccc(-c2nc(-c3cncc(-c4ccc(CNCC(=O)O)cc4)c3)c3cc[nH]c3n2)n1 [Example 150, (4-{5-[2-(6-Methyl-pyridin-2-yl)-7H-pyrrolo[2,3-d]pyrimidin-4-yl]-pyridin-3-yl}-benzylamino)-acetic acid]
12 | 5.8 | Cc1cccc(-c2nc(-c3cncc(-c4ccc(CNCCO)cc4)c3)c3cc[nH]c3n2)n1 [Example 151]
13 | 10 | COC(=O)CN(C)Cc1ccc(-c2cncc(-c3cc(-c4cccc(C)n4)nc4[nH]ccc34)c2)cc1 [Example 152, [Methyl-(4-{5-[6-(6-methyl-pyridin-2-yl)-1H-pyrrolo[2,3-b]pyridin-4-yl]-pyridin-3-yl}-benzyl)-amino]-acetic acid methyl ester]
14 | 11 | Cc1cccc(-c2cc(-c3cncc(-c4ccc(CN(C)CCO)cc4)c3)c3cc[nH]c3n2)n1 [Example 153, 2-[Methyl-(4-{5-[6-(6-methyl-pyridin-2-yl)-1H-pyrrolo[2,3-b]pyridin-4-yl]-pyridin-3-yl}-benzyl)-amino]-ethanol]
15 | 6.4 | Cc1cccc(-c2cc(-c3cncc(-c4ccc(CN(C)CC(=O)O)cc4)c3)c3cc[nH]c3n2)n1 [Example 154, [Methyl-(4-{5-[6-(6-methyl-pyridin-2-yl)-1H-pyrrolo[2,3-b]pyridin-4-yl]-pyridin-3-yl}-benzyl)-amino]-acetic acid acid]
16 | 48 | Cc1cccc(-c2cc(-c3cncc(C#CCN4CCC(F)(F)C4)c3)c3cc[nH]c3n2)n1 [Example 155, 4-{5-[3-(3,3-Difluoro-pyrrolidin-1-yl)-prop-1-ynyl]-pyridin-3-yl}-6-(6-methyl-pyridin-2-yl)-1H-pyrrolo[2,3-b]pyridine]
17 | 11 | Cc1cccc(-c2cc(-c3cncc(-c4cccc(CC(=O)O)c4)c3)c3cc[nH]c3n2)n1 [Example 156, (3-{5-[6-(6-Methyl-pyridin-2-yl)-1H-pyrrolo[2,3-b]pyridin-4-yl]-pyridin-3-yl}-phenyl)-acetic acid]
18 | 8 | Cc1cccc(-c2cc(-c3cncc(-c4ccc(CC(=O)O)cc4)c3)c3cc[nH]c3n2)n1 [Example 157, (4-{5-[6-(6-Methyl-pyridin-2-yl)-1H-pyrrolo[2,3-b]pyridin-4-yl]-pyridin-3-yl}-phenyl)-acetic acid]
19 | 27 | Cc1cccc(-c2cc(-c3cncc(C#CCN4CCOCC4)c3)c3cc[nH]c3n2)n1 [Example 158, 6-(6-Methyl-pyridin-2-yl)-4-[5-(3-morpholin-4-yl-prop-1-ynyl)-pyridin-3-yl]-1H-pyrrolo[2,3-b]pyridine]
20 | 6.5 | Cc1cccc(-c2cc(-c3cncc(-c4ccc(CCC(=O)O)cc4)c3)c3cc[nH]c3n2)n1 [Example 159, 3-(4-{5-[6-(6-Methyl-pyridin-2-yl)-1H-pyrrolo[2,3-b]pyridin-4-yl]-pyridin-3-yl}-phenyl)-propionic acid]
21 | 5.9 | Cc1cccc(-c2cc(-c3cncc(-c4ccc(C(C)(C)N(C)C)cc4)c3)c3cc[nH]c3n2)n1 [Example 160, Dimethyl-[1-methyl-1-(4-{5-[6-(6-methyl-pyridin-2-yl)-1H-pyrrolo[2,3-b]pyridin-4-yl]-pyridin-3-yl}-phenyl)-ethyl]-amine]
22 | 19 | Cc1cccc(-c2cc(-c3cncc(-c4ccc(C(C)(C)N5CCOCC5)cc4)c3)c3cc[nH]c3n2)n1 [Example 161, 4-{5-[4-(1-Methyl-1-morpholin-4-yl-ethyl)-phenyl]-pyridin-3-yl}-6-(6-methyl-pyridin-2-yl)-1H-pyrrolo[2,3-b]pyridine]
23 | 7 | Cc1cccc(-c2cc(-c3cncc(-c4ccc(C(C)(C)NCCO)cc4)c3)c3cc[nH]c3n2)n1 [Example 162, 2-[1-Methyl-1-(4-{5-[6-(6-methyl-pyridin-2-yl)-1H-pyrrolo[2,3-b]pyridin-4-yl]-pyridin-3-yl}-phenyl)-ethylamino]-ethanol]
24 | 6.6 | Cc1cccc(-c2cc(-c3cncc(-c4ccc(C(C)(C)N(C)CCO)cc4)c3)c3cc[nH]c3n2)n1 [Example 163, 2-{Methyl-[1-methyl-1-(4-{5-[6-(6-methyl-pyridin-2-yl)-1H-pyrrolo[2,3-b]pyridin-4-yl]-pyridin-3-yl}-phenyl)-ethyl]-amino}-ethanol]
25 | 6.3 | Cc1cccc(-c2cc(-c3cncc(-c4ccc(C(C)(C)N)cc4C)c3)c3cc[nH]c3n2)n1 [Example 164, 1-Methyl-1-(3-methyl-4-{5-[6-(6-methyl-pyridin-2-yl)-1H-pyrrolo[2,3-b]pyridin-4-yl]-pyridin-3-yl}-phenyl)-ethylamine]
